The subject of assay [1] is Aβ. The experiment in a line: ELISA determination of secreted Aβ in conditioned media of H4 cells. It counts as cell-based, human. The following applies: 10 μM, 48 hours. The procedure:
For Aβ determinations in the conditioned media, H4 cells were plated in 6-well Petri dishes. When 80-90% confluent, cells were washed in PBS and incubated in 1 ml of fresh medium for 48 hr. Secreted Aβ was determined by standard sandwich ELISA as described before (Costantini et al., 2007; Costantini et al., 2006; Jonas et al., 2008; Jonas et al., 2010; Ko and Puglielli, 2009; Pehar et al., 2010). For each sample, the levels of Aβ40, Aβ42, and Aβtotal were quantified as triplicate based upon standard curves run (on every ELISA plate) and then expressed as pmol Aβ/mg of protein. Aβ42 was constantly found to be ˜25% of total Aβ values.

The test system of assay [2] is histone acetyltransferase p300/CBP. The experiment in a line: In vitro activity of histone acetyltransferase p300/CBP. It counts as biochemical. The following applies: data not shown.
Assay [3] has as its system BACE1. The experiment in a line: Western blot assessment of BACE1 levels in H4 cell lysates. It counts as cell-based, human. Particulars: H4 cells, 48 hours. The procedure: Western blotting was performed on a 4-12% Bis-Tris SDS-PAGE system (NuPAGE; Invitrogen, Carlsbad, Calif., USA) as described previously (Costantini et al., 2006; Jonas et al., 2008; Jonas et al., 2010; Ko and Puglielli, 2007; Ko and Puglielli, 2009; Pehar et al., 2010). The following antibodies were used in this study: anti-acetylated lysine (monoclonal; cat. no. ab409; Abcam, Cambridge, Mass., USA); anti-BACE1 (polyclonal; cat. no. ab2077; Abcam); anti-Myc (monoclonal; cat. no. sc-40; santa cruz, Santa Cruz, Calif., USA); anti-ATases/NAT8 (polyclonal; cat. no. AP4957c; Abgent, San Diego, Calif., USA); anti-actin (monoclonal; cat. no. A1978; Sigma, St Louis, Mo., USA); anti-C99 (monoclonal; cat. no. M066-3; MBL, Woburn, Mass., USA); anti-acetylated H3 (polyclonal; cat. no. 06-599, Millipore, Billerica, Mass.); anti-acetylated H4 (polyclonal; cat. no. 06-866, Millipore, Billerica, Mass.); anti-αPCNA (polyclonal; cat. no. AP2835b, Abgent, San Diego, Calif., USA).
Samples were imaged with classical chemiluminescence and with the LiCor Odyssey Infrared Imaging System (LI-COR Biosciences, Lincoln, Nebr., USA). For chemiluminescent detection, HRP-conjugated anti-mouse or anti-rabbit secondary antibodies were used at 1:6000 dilution in 3% BSA/TBST (GE Healthcare). Detection was performed with either Lumiglo (KPL) or ECL Plus (GE Healthcare). For infrared imaging, goat anti-rabbit Alexa Fluor 680-conjugated secondary antibodies were used.
To assess their biological effects, we treated human neuroglioma (H4) cells with 10 μM of both compounds. […] This might reflect different kinetics of inhibition as well as different IC50s (see FIG. 2). Alternatively, it might also be explained by different cell-permeability properties. In fact, the cLog P for compound 9 and 19 is 5.03 and 3.19, respectively. The cLog P (or partition coefficient) is an indication of partition properties of a compound between hydrophobic and hydrophilic compartments. Higher values indicate preferential distribution in hydrophobic environments and, as such, increased permeability across biological membranes.

With `O=c1c(Cl)c2oc3ccccc3nc-2c2ccccc12` [Compound 9], the “levels of Aβ in the conditioned media / generation of Aβ” value in assay [1] was “decreased levels of Aβ”. Further, the “inhibition of in vitro activity of p300/CBP” value in assay [2] was “neither compound inhibited”. Besides, the “levels of BACE1” value in assay [3] (10 μM) is given as “significant reduction”. In addition, in assay [3] (increasing concentrations), the “levels of BACE1 with increasing concentrations” value is recorded as “dose-dependent decrease”.

(Values after patent publication US9522124B2, “Methods for treating Alzheimer's disease” (Wisconsin Alumni Research Foundation, priority 2011, dated 2016).)
